These results are taken from patent publication US20200131669A1, “CYCLIC PEPTIDE COMPOUND HAVING HIGH MEMBRANE PERMEABILITY, AND LIBRARY CONTAINING SAME” (Chugai Seiyaku Kabushiki Kaisha, priority 2017, published 2020).

Molecules are shown by their SMILES. Starred links: 1 amine or outer side, 2 acyl side, 3 side chain; linkers in the order of their positions; H or OH if unused. Positions of bridges follow the written chain, without caps; N, C: chain ends. Non-standard residues stand in square brackets, D forms with d. Residues, ends and D or L forms follow the SMILES beside them. ξ: configuration not given here. *: point of attachment. NMeF = CN[C@@H](Cc1ccccc1)C(=O)O; NMeGABA = CN(CCCC(=O)[*:2])[*:1]; dNMeF = CN[C@H](Cc1ccccc1)C(=O)O; hPhe = N[C@@H](CCc1ccccc1)C(=O)O; NMeL = CN[C@@H](CC(C)C)C(=O)O; NMeV = CN[C@H](C(=O)O)C(C)C; NMeAbu = CC[C@H](NC)C(=O)O; NMeS = CN[C@@H](CO)C(=O)O; NMeA = CN[C@@H](C)C(=O)O; Piperidide = C1CCN(*)CC1; Abu = CC[C@H](N)C(=O)O; Isopentyl = CC(C)CC*; ξS = NC(CO)C(=O)O; Sar = CNCC(=O)O; tBu = CC(C)(C)*

The first series can be described thus: Caco-2 membrane permeability, improved method as used in the following Examples (96-well, 20 to 24 h preincubation). In kind it is in vitro ADME. The following applies: human, Caco-2, Caco-2. In outline: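 Papp (cm/sec) was derived from LC/MS of basal samples collected 180 min after apical dosing in FaSSIF/HBSS pH 6.0 with 1% DMSO, against a basal HBSS pH 7.4 receiver containing 4% BSA. Three-week Caco-2 cultures were first preincubated with compound in DMEM+FaSSIF at 37 °C for 20–24 h.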
Take `CC(C)CCOC[C@@H]1NC(=O)[C@H](CC(C)C)N(C)C(=O)CN(C)C(=O)[C@H]([C@@H](C)O)NC(=O)[C@H](CC(C)C)N(C)C(=O)[C@H](CC(C)C)NC(=O)[C@H](Cc2ccccc2)N(C)C(=O)[C@@H](C)NC(=O)C[C@@H](C(=O)N2CCCCC2)NC(=O)[C@H](CC(C)C)N(C)C(=O)[C@@H](Cc2ccccc2)N(C)C1=O` [pd300] ([dA][NMeF]L[NMeL]T[Sar][NMeL]S(Isopentyl)[dNMeF][NMeL]D-Piperidide; lactam N-11): the Papp A→B at 180 min was 1.9 ×10⁻⁶ cm/s.
On to `CC(C)CCOC[C@@H]1NC(=O)[C@H](Cc2ccccc2)N(C)C(=O)[C@@H](C)NC(=O)C[C@@H](C(=O)N2CCCCC2)NC(=O)[C@H](CC(C)C)N(C)C(=O)[C@H](Cc2ccccc2)N(C)C(=O)[C@H](COC(C)(C)C)NC(=O)[C@H](CC(C)C)N(C)C(=O)CN(C)C(=O)[C@H]([C@@H](C)O)NC(=O)[C@H](CC(C)C)N(C)C1=O` [pd301] ([dA][NMeF]S(Isopentyl)[NMeL]T[Sar][NMeL]S(tBu)[NMeF][NMeL]D-Piperidide; lactam N-11), for which the Papp A→B at 180 min worked out at 1.7 ×10⁻⁶ cm/s.
`CC[C@H](C)[C@@H]1NC(=O)[C@H](CC(C)C)N(C)C(=O)CCCN(C)C(=O)C[C@@H](C(=O)N2CCCCC2)NC(=O)[C@H](CC(C)C)N(C)C(=O)[C@H](C)N(C)C(=O)[C@H]([C@@H](C)O)NC(=O)[C@H](CC(C)C)N(C)C(=O)[C@H](COCCC(C)C)NC(=O)[C@H](Cc2ccccc2)N(C)C(=O)[C@H](Cc2ccccc2)N(C)C1=O` [pd302] ([NMeGABA][NMeL]I[NMeF][NMeF]S(Isopentyl)[NMeL]T[NMeA][NMeL]D-Piperidide; lactam N-11) displayed a Papp A→B at 180 min of 1.4 ×10⁻⁶ cm/s.
With `CC(C)CCOC[C@@H]1NC(=O)[C@H](CC(C)C)N(C)C(=O)CCCN(C)C(=O)C[C@@H](C(=O)N2CCCCC2)NC(=O)[C@H](CC(C)C)N(C)C(=O)[C@H](C)N(C)C(=O)[C@H]([C@@H](C)O)NC(=O)[C@H](CC(C)C)N(C)C(=O)[C@H](COC(C)(C)C)NC(=O)[C@H](Cc2ccccc2)N(C)C(=O)[C@H](Cc2ccccc2)N(C)C1=O` [pd303] ([NMeGABA][NMeL]S(Isopentyl)[NMeF][NMeF]S(tBu)[NMeL]T[NMeA][NMeL]D-Piperidide; lactam N-11), the Papp A→B at 180 min was 1 ×10⁻⁶ cm/s.
Compound `CC(C)CCOC[C@@H]1NC(=O)[C@H](C)N(C)C(=O)C[C@@H](C(=O)N2CCCCC2)NC(=O)[C@H](CC(C)C)N(C)C(=O)CN(C)C(=O)[C@H]([C@@H](C)O)NC(=O)[C@H](CC(C)C)N(C)C(=O)[C@H](Cc2ccccc2)N(C)C(=O)[C@H](C(C)C)NC(=O)[C@H](Cc2ccccc2)N(C)C(=O)[C@H](CC(C)C)N(C)C1=O` [pd304] ([NMeA]S(Isopentyl)[NMeL][NMeF]V[NMeF][NMeL]T[Sar][NMeL]D-Piperidide; lactam N-11) displayed a Papp A→B at 180 min of 2.2 ×10⁻⁶ cm/s.
Same read-out and setting: with `CC(C)CCOCC1NC(=O)[C@H](CC(C)C)N(C)C(=O)[C@H](Cc2ccccc2)N(C)C(=O)CN(C)C(=O)[C@H]([C@@H](C)O)NC(=O)[C@H](CC(C)C)N(C)C(=O)[C@H](C(C)C)NC(=O)[C@H](Cc2ccccc2)N(C)C(=O)CN(C)C(=O)C[C@@H](C(=O)N2CCCCC2)NC(=O)[C@H](CC(C)C)N(C)C1=O` (stereo partly drawn) [pd305] ([Sar][NMeF]V[NMeL]T[Sar][NMeF][NMeL][ξS](Isopentyl)[NMeL]D-Piperidide; lactam N-11) the figure was 2.3 ×10⁻⁶ cm/s; with `CC[C@H]1C(=O)N[C@@H]([C@@H](C)O)C(=O)N(C)CC(=O)N(C)[C@@H](COCCC(C)C)C(=O)N[C@@H](CC(C)C)C(=O)N(C)[C@@H](Cc2ccccc2)C(=O)N(C)[C@@H](CC(C)C)C(=O)N[C@H](C(=O)N2CCCCC2)CC(=O)N[C@H](C(C)C)C(=O)N(C)[C@@H](Cc2ccccc2)C(=O)N[C@@H](CC(C)C)C(=O)N1C` [pd306] ([dV][NMeF]L[NMeAbu]T[Sar][NMeS](Isopentyl)L[NMeF][NMeL]D-Piperidide; lactam N-11), 1.2 ×10⁻⁶ cm/s; with `CC[C@@H]1NC(=O)[C@H](Cc2ccccc2)N(C)C(=O)[C@H](COCCC(C)C)N(C)C(=O)[C@H](CC(C)C)NC(=O)[C@H](C)N(C)C(=O)C[C@@H](C(=O)N2CCCCC2)NC(=O)[C@H](CC(C)C)N(C)C(=O)CN(C)C(=O)[C@H]([C@@H](C)O)NC(=O)[C@H](CC(C)C)N(C)C(=O)[C@H](Cc2ccccc2)N(C)C1=O` [pd307] ([NMeA]L[NMeS](Isopentyl)[NMeF][Abu][NMeF][NMeL]T[Sar][NMeL]D-Piperidide; lactam N-11), 2.9 ×10⁻⁶ cm/s.
On the same count and under the same terms, with `CC(C)C[C@H]1C(=O)N(C)[C@@H](Cc2ccccc2)C(=O)N[C@@H](COC(C)(C)C)C(=O)N(C)[C@@H](C)C(=O)N[C@H](C(=O)N2CCCCC2)CC(=O)N(C)[C@@H](C)C(=O)N(C)[C@@H](Cc2ccccc2)C(=O)N[C@@H](CCc2ccccc2)C(=O)N(C)[C@@H](CC(C)C)C(=O)N[C@@H]([C@@H](C)O)C(=O)N(C)CC(=O)N1C` [pd310] ([NMeA][NMeF][hPhe][NMeL]T[Sar][NMeL][NMeF]S(tBu)[NMeA]D-Piperidide; lactam N-11) the figure was 1.6 ×10⁻⁶ cm/s; with `CC(C)C[C@H]1C(=O)N(C)[C@@H](Cc2ccccc2)C(=O)N[C@H](C(=O)N2CCCCC2)CC(=O)N(C)[C@@H](C(C)C)C(=O)N[C@@H](C)C(=O)N(C)[C@@H](Cc2ccccc2)C(=O)N(C)[C@@H](CC(C)C)C(=O)N(C)CC(=O)N[C@@H]([C@@H](C)O)C(=O)N(C)[C@@H](C(C)C)C(=O)N[C@@H](CCc2ccccc2)C(=O)N1C` [pd311] ([NMeV]A[NMeF][NMeL][Sar]T[NMeV][hPhe][NMeL][NMeF]D-Piperidide; lactam N-11), 2.6 ×10⁻⁶ cm/s.
`CC(C)C[C@@H]1NC(=O)[C@H](Cc2ccccc2)N(C)C(=O)[C@@H](C(C)C)NC(=O)C[C@@H](C(=O)N2CCCCC2)NC(=O)[C@H](C)N(C)C(=O)[C@H](CC(C)C)N(C)C(=O)[C@H](CCc2ccccc2)NC(=O)[C@H](CC(C)C)N(C)C(=O)CN(C)C(=O)[C@H]([C@@H](C)O)NC(=O)[C@H](CC(C)C)N(C)C1=O` [pd312] ([dV][NMeF]L[NMeL]T[Sar][NMeL][hPhe][NMeL][NMeA]D-Piperidide; lactam N-11) had a Papp A→B at 180 min of 1.5 ×10⁻⁶ cm/s.

The series is the same for the next values; noted with them: human, Caco-2, Caco-2 (cm/sec).
`CC(C)C[C@@H]1NC(=O)[C@H](Cc2ccccc2)N(C)C(=O)[C@H](COC(C)(C)C)NC(=O)[C@H](Cc2ccccc2)N(C)C(=O)[C@H](Cc2ccccc2)N(C)C(=O)[C@H](CC(C)C)N(C)C(=O)[C@@H](CC(C)C)NC(=O)C[C@@H](C(=O)N2CCCCC2)NC(=O)[C@H](Cc2ccccc2)N(C)C(=O)[C@H]([C@@H](C)O)NC(=O)[C@H](CC(C)C)N(C)C1=O` [pd243] ([dL][NMeL][NMeF][NMeF]S(tBu)[NMeF]L[NMeL]T[NMeF]D-Piperidide; lactam N-11) had a Papp A→B at 180 min of 0.057 ×10⁻⁶ cm/s.
Still for that read-out and setting: with `CC(C)C[C@@H]1NC(=O)[C@H](Cc2ccccc2)N(C)C(=O)[C@H](CC(C)C)N(C)C(=O)[C@H](Cc2ccccc2)NC(=O)[C@@H](C)NC(=O)C[C@@H](C(=O)N2CCCCC2)NC(=O)[C@H](Cc2ccccc2)N(C)C(=O)CN(C)C(=O)[C@H](Cc2ccccc2)NC(=O)[C@H](CC(C)C)N(C)C(=O)[C@H]([C@@H](C)O)NC1=O` [pd244] ([dA]F[NMeL][NMeF]LT[NMeL]F[Sar][NMeF]D-Piperidide; lactam N-11) the figure was 0.045 ×10⁻⁶ cm/s; with `CC(C)C[C@@H]1NC(=O)[C@H]([C@@H](C)O)NC(=O)[C@H](CC(C)C)N(C)C(=O)C[C@@H](C(=O)N2CCCCC2)NC(=O)[C@H](COC(C)(C)C)NC(=O)[C@H](Cc2ccccc2)NC(=O)[C@H](C)N(C)C(=O)[C@H](Cc2ccccc2)NC(=O)CN(C)C(=O)[C@H](Cc2ccccc2)N(C)C(=O)[C@H](Cc2ccccc2)N(C)C1=O` [pd245] ([NMeL]TL[NMeF][NMeF][Sar]F[NMeA]FS(tBu)D-Piperidide; lactam N-11), 0.019 ×10⁻⁶ cm/s.
Still for that read-out and setting: the value for `CC(C)C[C@@H]1NC(=O)CN(C)C(=O)[C@H](Cc2ccccc2)N(C)C(=O)[C@@H](C)NC(=O)C[C@@H](C(=O)N2CCCCC2)NC(=O)[C@H](Cc2ccccc2)N(C)C(=O)[C@H](Cc2ccccc2)N(C)C(=O)[C@H](COC(C)(C)C)NC(=O)[C@H](CC(C)C)N(C)C(=O)[C@H](Cc2ccccc2)NC(=O)[C@H]([C@@H](C)O)NC1=O` [pd246] ([dA][NMeF][Sar]LTF[NMeL]S(tBu)[NMeF][NMeF]D-Piperidide; lactam N-11) was 0.014 ×10⁻⁶ cm/s.
Same read-out and setting: the value for `CC(C)C[C@H]1C(=O)NCC(=O)N[C@H](C(=O)N(C)[C@@H](Cc2ccccc2)C(=O)N(C)[C@@H](Cc2ccccc2)C(=O)N[C@@H](C)C(=O)N2CCCCC2)CC(=O)N[C@@H](C)C(=O)N[C@@H]([C@@H](C)O)C(=O)N(C)[C@@H](C)C(=O)N(C)[C@@H](Cc2ccccc2)C(=O)N[C@@H](C(C)C)C(=O)N(C)[C@@H](Cc2ccccc2)C(=O)N1C` [pd247] (AT[NMeA][NMeF]V[NMeF][NMeL]GD[NMeF][NMeF]A-Piperidide; lactam N-9) was 0.087 ×10⁻⁶ cm/s.

Staying with this series, now noted: human; Papp, Caco-2 membrane permeability, improved method; read-out: Caco-2.
Consider `CC(C)CCOC[C@H]1C(=O)N[C@@H]([C@@H](C)O)C(=O)N(C)CC(=O)N(C)[C@@H](CC(C)C)C(=O)N[C@H](C(=O)N2CCCCC2)CC(=O)N(C)[C@@H](C)C(=O)N[C@@H](CC(C)C)C(=O)N(C)[C@@H](CC(C)C)C(=O)N(C)[C@@H](Cc2ccccc2)C(=O)N[C@@H](CC(C)C)C(=O)N(C)[C@@H](Cc2ccccc2)C(=O)N1C` [pd308] ([NMeA]L[NMeL][NMeF]L[NMeF][NMeS](Isopentyl)T[Sar][NMeL]D-Piperidide; lactam N-11), for which the Papp A→B at 180 min stood at 2.1 ×10⁻⁶ cm/s.
